Assay results taken from patent US7064120B2, “Tricyclic pyridyl carboxamides and derivatives thereof tocolytic oxytocin receptor antagonists” (Wyeth, priority 2001, dated 2006).

Biological target: T1, human vasopressin V1a receptor subtype (Homo sapiens, UniProt P37288)
T1 construct: host or cells: CHO cells, stably transfected (pZeoSV vector for the Thibonnier line)
Experiment: Vasopressin binding in CHO cell membranes expressing human vasopressin V1a subtype receptors ([3H]Manning ligand radioligand binding)
Settings: for IC50: value in parentheses
Outline: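 Membranes from CHO cells expressing human V1a, 25–50 μg protein/well, incubated 60 min at room temperature with [3H]Manning ligand (20 μL of 8 nM stock) in 50 mM Tris-HCl pH 7.4 with BSA, MgCl2 and protease inhibitors. Filtration then scintillation counting; reported as % inhibition or IC50 (nM).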

T1 sequence (P37288 whole entry): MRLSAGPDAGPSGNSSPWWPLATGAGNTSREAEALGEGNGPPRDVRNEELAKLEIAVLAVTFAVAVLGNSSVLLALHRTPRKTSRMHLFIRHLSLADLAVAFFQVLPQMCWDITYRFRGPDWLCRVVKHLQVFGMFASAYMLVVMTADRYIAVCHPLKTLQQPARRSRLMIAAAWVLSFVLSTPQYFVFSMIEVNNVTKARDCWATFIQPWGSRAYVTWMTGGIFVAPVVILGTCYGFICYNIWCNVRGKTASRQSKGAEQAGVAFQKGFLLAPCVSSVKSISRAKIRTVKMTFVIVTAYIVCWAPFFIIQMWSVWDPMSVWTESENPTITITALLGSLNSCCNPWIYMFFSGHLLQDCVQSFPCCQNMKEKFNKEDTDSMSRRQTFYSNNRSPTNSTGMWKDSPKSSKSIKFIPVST

inhibition at 0.1 µM (100 nM) [%]	SMILES	further results
5	COc1cccc(-c2ccc(C(=O)N3Cc4ccc(C(=O)N5CCN(c6ccccn6)CC5)n4Cc4ccccc43)cc2C)c1 [Example 77, {10-[(3′-Methoxy-2-methyl-[1,1′-biphenyl]-4-yl)carbonyl]-10,11-dihydro-5H-pyrrolo[2,1-c][1,4]benzodiazepin-3-yl}[4-(2-pyridinyl)-1-piperazinyl]methanone]	–
50	COc1cc(C(=O)N2Cc3ccc(C(=O)NCc4ccncc4)n3Cc3ccccc32)ccc1-c1ccccc1C [Example 93, 10-[(2-Methoxy-2′-methyl-[1,1′-biphenyl]-4-yl)carbonyl]-N-(4-pyridinylmethyl)-10,11-dihydro-5H-pyrrolo[2,1-c][1,4]benzodiazepine-3-carboxamide]	–
63	Cc1cc(C(=O)N2Cc3ccc(C(=O)N(C)CCc4ccccn4)n3Cc3ccccc32)ccc1-c1ccccc1C(F)(F)F [Example 74, N-Methyl-10-{[2-methyl-2′-trifluoromethyl-[1,1′-biphenyl]-4-yl]carbonyl}-N-[2-(2-pyridinyl)ethyl]-10,11-dihydro-5H-pyrrolo[2,1-c][1,4]benzodiazepine-3-carboxamide]	–
1	Cc1cc(C(=O)N2Cc3ccc(C(=O)N4CCN(c5ccccn5)CC4)n3Cc3ccccc32)ccc1-c1ccccc1C(F)(F)F [Example 87, (10-{[2-Methyl-2′-trifluoromethyl-[1,1′-biphenyl]-4-yl]carbonyl}-10,11-dihydro-5H-pyrrolo[2,1-c][1,4]benzodiazepin-3-yl)[4-(2-pyridinyl)-1-piperazinyl]methanone]	–
81	Cc1ccccc1-c1ccc(C(=O)N2Cc3ccc(C(=O)N(C)CCc4ccccn4)n3Cc3ccccc32)cc1 [Example 68, N-Methyl-10-[(2′-methyl-[1,1′-biphenyl]-4-yl)carbonyl]-N-[2-(2-pyridinyl)ethyl]-10,11-dihydro-5H-pyrrolo[2,1-c][1,4]benzodiazepine-3-carboxamide]	–
10	Cc1cc(C(=O)N2Cc3ccc(C(=O)NCc4ccncc4)n3Cc3ccccc32)ccc1-c1ccccc1C(F)(F)F [Example 100, 10-{[2-Methyl-2′-trifluoromethyl-[1,1′-biphenyl]-4-yl]carbonyl}-N-(4-pyridinylmethyl)-10,11-dihydro-5H-pyrrolo[2,1-c][1,4]benzodiazepine-3-carboxamide]	–
18	Cc1ccccc1-c1ccc(C(=O)N2Cc3ccc(C(=O)N4CCN(c5ccccn5)CC4)n3Cc3ccccc32)cc1 [Example 79, {10-[(2′-Methyl-[1,1′-biphenyl]-4-yl)carbonyl]-10,11-dihydro-5H-pyrrolo[2,1-c][1,4]benzodiazepin-3-yl}[4-(2-pyridinyl)-1-piperazinyl]methanone]	–
-1	COc1ccccc1-c1ccc(C(=O)N2Cc3ccc(C(=O)N4CCN(c5ccccn5)CC4)n3Cc3ccccc32)cc1C [Example 75, {10-[(2′-Methoxy-2-methyl-[1,1′-biphenyl]-4-yl)carbonyl]-10,11-dihydro-5H-pyrrolo[2,1-c][1,4]benzodiazepin-3-yl}[4-(2-pyridinyl)-1-piperazinyl]methanone]	–
–	COc1cc(C(=O)N2Cc3ccc(C(=O)N(C)Cc4cccnc4)n3Cc3ccccc32)ccc1-c1ccccc1C(F)(F)F [Example 7, 10-{[2-Methoxy-2′-trifluoromethyl-[1,1′-biphenyl]-4-yl]carbonyl}-N-methyl-N-(pyridin-3-ylmethyl)-10,11-dihydro-5H-pyrrolo[2,1-c][1,4]benzodiazepine-3-carboxamide]	IC50: 803 nM
54	COc1cccc(-c2ccc(C(=O)N3Cc4ccc(C(=O)N(C)CCc5ccccn5)n4Cc4ccccc43)cc2OC)c1 [Example 72, 10-[(2,3′-Dimethoxy-[1,1′-biphenyl]-4-yl)carbonyl]-N-methyl-N-[2-(2-pyridinyl)ethyl]-10,11-dihydro-5H-pyrrolo[2,1-c][1,4]benzodiazepine-3-carboxamide]	–
–	Cc1cc(C(=O)N2Cc3ccc(C(=O)N4CCN(c5ccncc5)CC4)n3Cc3ccccc32)ccc1-c1ccccc1C(F)(F)F [Example 1]	V1a % inhibition @ 100 nM (100 nM): 9%
4	COc1ccccc1-c1ccc(C(=O)N2Cc3ccc(C(=O)NCc4ccncc4)n3Cc3ccccc32)cc1OC [Example 97, 10-[(2,2′-Dimethoxy-[1,1′-biphenyl]-4-yl)carbonyl]-N-(4-pyridinylmethyl)-10,11-dihydro-5H-pyrrolo[2,1-c][1,4]benzodiazepine-3-carboxamide]	–
0	Cc1ccccc1-c1ccc(C(=O)N2Cc3ccc(C(=O)N(C)Cc4cccnc4)n3Cc3ccccc32)cc1 [Example 105, N-Methyl-10-[(2′-methyl-[1,1′-biphenyl]-4-yl)carbonyl]-N-(3-pyridinylmethyl)-10,11-dihydro-5H-pyrrolo[2,1-c][1,4]benzodiazepine-3-carboxamide]	–
6	CN(CCc1ccccn1)C(=O)c1ccc2n1Cc1ccccc1N(C(=O)c1ccc(-c3cccc4ccccc34)cc1Cl)C2 [Example 73, 10-[2-Chloro-4-(naphthalen-1-yl)benzoyl]-N-methyl-N-[2-(2-pyridinyl)ethyl]-10,11-dihydro-5H-pyrrolo[2,1-c][1,4]benzodiazepine-3-carboxamide]	–
–	COc1cc(-c2ccccc2Cl)c(Cl)cc1C(=O)N1Cc2ccc(C(=O)N(C)Cc3cccnc3)n2Cc2ccccc21 [Example 6, 10-[(2′,6-Dichloro-3-methoxy-[1,1′-biphenyl]-4-yl)carbonyl]-N-methyl-N-(pyridin-3-ylmethyl)-10,11-dihydro-5H-pyrrolo[2,1-c][1,4]benzodiazepine-3-carboxamide]	IC50: 928 nM
–	COc1cccc(-c2ccc(C(=O)N3Cc4ccc(C(=O)N(C)Cc5cccnc5)n4Cc4ccccc43)cc2C)c1 [Example 102, 10-[(3′-Methoxy-2-methyl-[1,1′-biphenyl]4-yl)carbonyl]-N-methyl-N-(3-pyridinyImethyl)-10,11-dihydro-5H-pyrrolo[2,1-c][1,4]benzodiazepine-3-carboxamide]	IC50: 275 nM
-5	COc1cccc(-c2ccc(C(=O)N3Cc4ccc(C(=O)N5CCN(c6ccccn6)CC5)n4Cc4ccccc43)cc2OC)c1 [Example 85, {10-[(2,3′-Dimethoxy-[1,1′-biphenyl]-4-yl)carbonyl]-10,11-dihydro-5H-pyrrolo[2,1-c][1,4]benzodiazepin-3-yl}[4-(2-pyridinyl)-1-piperazinyl]methanone]	–
72	COc1cc(C(=O)N2Cc3ccc(C(=O)N(C)CCc4ccccn4)n3Cc3ccccc32)ccc1-c1ccccc1C [Example 69, 10-[(2-Methoxy-2′-methyl-[1,1′-biphenyl]-4-yl)carbonyl]-N-methyl-N-[2-(2-pyridinyl)ethyl]-10,11-dihydro-5H-pyrrolo[2,1-c][1,4]benzodiazepine-3-carboxamide]	–
21	Cc1ccccc1-c1ccc(C(=O)N2Cc3ccc(C(=O)NCc4ccncc4)n3Cc3ccccc32)cc1 [Example 92, 10-[(2′-Methyl-[1,1′-biphenyl]-4-yl)carbonyl]-N-(4-pyridinylmethyl)-10,11-dihydro-5H-pyrrolo[2,1-c][1,4]benzodiazepine-3-carboxamide]	–
11	Cc1ccccc1-c1ccc(C(=O)N2Cc3ccc(C(=O)N4CCN(c5ccccn5)CC4)n3Cc3ccccc32)cc1C [Example 76, {10-[(2,2′-Dimethyl-[1,1′-biphenyl]-4-yl)carbonyl]-10,11-dihydro-5H-pyrrolo[2,1-c][1,4]benzodiazepin-3-yl}[4-(2-pyridinyl)-1-piperazinyl]methanone]	–
6	COc1cc(C(=O)N2Cc3ccc(C(=O)N4CCN(c5ccccn5)CC4)n3Cc3ccccc32)ccc1-c1ccccc1C [Example 80, {10-[(2-Methoxy-2′-methyl-[1,1′-biphenyl]-4-yl)carbonyl]-10,11-dihydro-5H-pyrrolo[2,1-c][1,4]benzodiazepin-3-yl}[4-(2-pyridinyl)-1-piperazinyl]methanone]	–
0	COc1cc(-c2ccccc2C)c(Cl)cc1C(=O)N1Cc2ccc(C(=O)NCc3ccncc3)n2Cc2ccccc21 [Example 94, 10-[(6-Chloro-3-methoxy-2′-methyl-[1,1′-biphenyl]-4-yl)carbonyl]-N-(4-pyridinylmethyl)-10,11-dihydro-5H-pyrrolo[2,1-c][1,4]benzodiazepine-3-carboxamide]	–
20	COc1cc(C(=O)N2Cc3ccc(C(=O)N(C)CCc4ccccn4)n3Cc3ccccc32)ccc1-c1cccc2ccccc12 [Example 71, 10-[3-Methoxy-4-(naphthalen-1-yl)benzoyl]-N-methyl-N-[2-(2-pyridinyl)ethyl]-10,11-dihydro-5H-pyrrolo[2,1-c][1,4]benzodiazepine-3-carboxamide]	–
58	Cc1ccccc1-c1ccc(C(=O)N2Cc3ccc(C(=O)N(C)CCc4ccccn4)n3Cc3ccccc32)cc1C [Example 66, 10-[(2,2′-Dimethyl-[1,1′-biphenyl]-4-yl)carbonyl]-N-methyl-N-[2-(2-pyridinyl)ethyl]-10,11-dihydro-5H-pyrrolo[2,1-c][1,4]benzodiazepine-3-carboxamide]	–
–	Cc1cc(C(=O)N2Cc3ccc(C(=O)N4CCN(Cc5ccc[n+]([O-])c5)CC4)n3Cc3ccccc32)ccc1-c1ccccc1C(F)(F)F [Example 2, 10-{[2-Methyl-2′-trifluoromethyl-[1,1′-biphenyl]-4-yl]carbonyl}-3-({4-[(1-oxidopyridin-3-yl)methyl]piperazin-1-yl}carbonyl)-10,11-dihydro-5H-pyrrolo[2,1-c][1,4]benzodiazepine]	IC50: 3180 nM
-1	COc1cccc(-c2cc(OC)c(C(=O)N3Cc4ccc(C(=O)N5CCN(c6ccccn6)CC5)n4Cc4ccccc43)cc2Cl)c1 [Example 82, {10-[(6-Chloro-3,3′-dimethoxy-[1,1′-biphenyl]-4-yl)carbonyl]-10,11-dihydro-5H-pyrrolo[2,1-c][1,4]benzodiazepin-3-yl}[4-(2-pyridinyl)-1-piperazinyl]methanone]	–
